Assay results from PMC8603350, “A Remote Secondary Binding Pocket Promotes Heteromultivalent Targeting of DC-SIGN” (Journal of the American Chemical Society, 2021).
Read-outs that look alike come from different tables or passages of the source. Values belong to the compound of their own block, whether it stands above or below them.

How the values were obtained:
DC-SIGN+ Raji cells = test: Liposome binding assay, flow cytometry; type: cell-based
Protocol: (§1) If not stated otherwise, all media and supplements for cell culture experiments were purchased from Thermo Fisher Scientific. Raji, THP-1 and U937 cell lines (ATCC) were grown in complete growth medium containing RPMI1640 medium, 10% FCS, 100 U mL-1 Penicillin-Streptomycin and GlutaMax at 37°C and 5% CO2. Cells were monitored with a light microscope (IT40 5PH, VWR) and subcultured every 2 -3 days to maintain cell densities ranging from of 0.5 - 3 x 10^6 cells per mL.
(§2) CLR-expressing cell lines were generated as described before.4,27 Briefly, DC-SIGN, Langerin, murine Langerin and murine Dectin-1 cDNAs (Sinobiologicals) were cloned into a lentiviral BIC-PGK-Zeo-T2a-mAmetrine:EF1A construct by Gibson assembly (NEB) according to the manufacturer’s protocol. HEK293 cells were transfected with the lentiviral vector together with third-generation packaging vectors and viral particles were then used for transduction of Raji cells. In analogy, DC-SIGN and Langerin-expressing THP-1 and U937 cell lines were generated by lentiviral transduction.
(§3) Liposome binding assay – flow cytometry
(§4) Liposome binding to CLR-expressing cells was assayed as previously described.27 Briefly, 0.05 x 10^6 cells were plated in transparent conical-bottom 96 well microtiter plates (Nunc) in a volume of 100 µL medium. Plates were centrifuged at 500 x g for 3 minutes, supernatant was aspirated, and cells were resuspended in 100 µL medium, containing 16 µM liposomes. In control experiments, cells were incubated with medium containing 10 mM EDTA or 50 µg mL-1 mannan for 15 min at 4 °C, prior to liposome application. After 1 h incubation at 4 °C in the dark, cells were centrifuged at 500 x g for 3 min and the supernatant was discarded. Cells wer e resuspended in 200 µL ice-cold medium and analyzed by detecting the co-formulated Alexa 647 dye via flow cytometry with a 654 nm laser and a 670/14 nm filter (Attune Nxt, life technologies).
Flow cytometry data was processed using FlowJo (BD Bioscience). Mean fluorescence intensity (MFI) was further analyzed and plotted using GraphPad Prism (GraphPad […]
To monitor allosteric activation of DC-SIGN by glycomimetic 48, the described protocol was adjusted as follows. DC-SIGN+ Raji cells were plated in transparent conical-bottom 96 well microtiter plates (Nunc) in a volume of 100 µL medium. Plates were centrifuged at 500 x g for 3 minutes, supernatant was aspirated, and cell were resuspended in 25 µL medium supplemented with varying concentrations of monovalent carbohydrates or 0.5 mM 48. Homomultivalent liposomes carrying either natural carbohydrates or 48 were added at a final concentration of 16 µM. Liposome binding was subsequently quantified by measuring Alexa 647 fluorescence in flow cytometry experiments. Statistical significance by means of a student’s t-test was assessed based on averaged normalized MFIs from four biological replicates each conducted as technical duplicates. A p-value < 0.05 was set as significance cut-off.

[1] = tested on: murine Dectin-1-expressing Raji cells; test: Liposome binding assay, flow cytometry; type: cell-based
Protocol: as §1, §2, §3, §4
(§5) Flow cytometry data was processed using FlowJo (BD Bioscience). Mean fluorescence

[2] = tested on: murine Langerin-expressing Raji cells; test: Liposome binding assay, flow cytometry; type: cell-based
Protocol: as §1, §2, §3, §4, §5

Langerin+ Raji cells = test: Liposome binding assay, flow cytometry; type: cell-based
Protocol: as §1, §2, §3, §4, §5

Langerin ECD [3] = target: T1, Langerin ECD (Homo sapiens, UniProt Q9UJ71); test: 19F NMR reporter displacement assay (RDA), KI determination by titration; type: binding; conditions: for Ki: competitive titration, 0.1 mM reporter ligand 49, 10% DMSO
T1 construct: the trimeric Langerin extracellular domain (ECD) was; made in house; host or cells: E. coli BL21* (DE3)
T1 sequence (Q9UJ71 65-328 limits assumed): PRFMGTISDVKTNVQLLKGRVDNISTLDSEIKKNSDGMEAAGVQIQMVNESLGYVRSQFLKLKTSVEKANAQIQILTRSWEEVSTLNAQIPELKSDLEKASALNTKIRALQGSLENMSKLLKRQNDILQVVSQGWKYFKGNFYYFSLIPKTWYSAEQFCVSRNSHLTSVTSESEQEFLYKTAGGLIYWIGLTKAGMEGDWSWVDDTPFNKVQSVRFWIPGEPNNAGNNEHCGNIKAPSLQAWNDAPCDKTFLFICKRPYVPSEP
Protocol: (§6) via SDS PAGE. The protein solution was aliquoted, snap frozen in liquid N2 and stored at -80°C until further usage.
(§7) NMR binding experiments – Langerin
(§8) General remarks. 19F R2-filtered NMR experiments were conducted on a PremiumCompact 600 MHz spectrometer (Agilent). Spectra were processed in MestreNova (Mestrelab Research) and data analysis was performed with OriginPro (OriginLab) . Experiments with the Langerin ECD were perf ormed at a receptor concentration of 50 μM in 25 mM Tris with 10% D 2O, 150 mM NaCl and 5 mM CaCl 2 […]
(§9) at pH 7.8 and 25°C. […]
CaCl2 at pH 7.0 and 25°C. TFA served as an internal reference at a concentration of 50 μM. Apparent transverse relaxation rates R 2,obs for the reporter ligand were determined using the CPMG pulse sequence as previously published. 6,30,31 […]
KI determination. KI values were determined as previously published for Langerin.6 Briefly, titration experiments were conducted at a concentration of 0.1 mM of reporter ligand 49 at five competitor concentrations [I]T (Table S5). […]

Langerin CRD [4] = target: T2, Langerin CRD (Homo sapiens, UniProt Q9UJ71); test: 15N HSQC NMR titration, KD determination; type: binding; conditions: 10% DMSO
T2 construct: Langerin carbohydrate recognition domains (CRDs) were expressed insolubly in; made in house; host or cells: E. coli BL21* (DE3)
T2 sequence (Q9UJ71 202-320 limits assumed): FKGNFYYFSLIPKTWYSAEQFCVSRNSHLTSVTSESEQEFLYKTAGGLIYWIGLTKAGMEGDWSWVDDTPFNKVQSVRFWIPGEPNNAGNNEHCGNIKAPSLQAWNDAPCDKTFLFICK
Protocol: ppm. The acquisition time tacq was set to 2.0 s and the DPFGSE pulse sequence was utilized for solvent suppression.33 Receptor resonances were suppressed using a T1,rho filter at a relaxation time τ of 35 ms.
Epitope mapping. The binding epitope for 43 was determined at a concentration of 500 µM. For each spectrum 512 scans were recorded. The relaxation delay d 1 was set to 6 s and spectra were recorded at 5 different saturation time s tsat varying from 0.25 to 6.00 s. Equation 1 served to derive the STD effect STD for each analyzed resonance from the corresponding on - and off-resonance spectra.34 I0 represents the integral of a resonance in the off-resonance spectrum and Isat represents the integral of a resonance in the on-resonance spectrum.
The apparent saturation rate k sat and the maximal STD effect STDmax were derived from Equation 2 in a two-parameter fit.35 Standard errors were derived directly from the fitting procedures. These parameters were used to calculate the initial slope of the STD build-up curves STD’0 via Equation 3. STD’0 values were normalized and mapped on the corresponding ligand structure. Only resonances for which at least part of a multiplet was isolated were considered for the epitope mapping.
STD = STDmax(1 − eksattsat)
General remarks. 15N HSQC NMR experiments were conducted on an Ascend 700 MHz spectrometer (Bruker).36 Spectra were processed in NMRPipe.37 Data analysis was performed using CCPN Analysis, MatLab (MathWorks) and OriginPro.38 […]
KD determination. KD values were determined in titration experiments at six ligand concentrations [L]T. Samples were prepared via serial dilution. Chemical shift perturbations CSPs for Langerin CRD resonances in the fast or fast-to-intermediate exchange regime observed upon titration with ligand were calculated as previously described via Equation 4.40
A standard deviation σ of 0.02 ppm was previously determined for the measurement of chemical shifts in 15N HSQC NMR experiments with the Langerin CRD. […]

Langerin ECD [5] = target: T1, Langerin ECD; test: 19F R2-filtered NMR screening of the mannoside library (reporter displacement, single competitor concentration); type: binding
Protocol: as §6, §7, §8, §9
CaCl2 at pH 7.0 and 25°C. TFA served as an internal reference at a concentration of 50 μM. Apparent transverse relaxation rates R 2,obs for the reporter ligand were determined using the CPMG pulse sequence as previously published. 6,30,31 Screening of mannoside library . Estimated affinities KI,est were determined in competitive binding experiments at 0.1 mM of reporter ligand 49 at 0.1 mM using the Langerin ECD at a single competitor concentration as previously described.6 Here, receptor concentrations [P]T values were directly calculated from R2,max, the data point at 0.1 mM 49 in absence of competitor. Subsequently, KI values were estimated in a one parameter fit. The screening was conducted in presence of 0% to 10% DMSO at mannoside concentrations between 0.1 and 10 mM. […]

DC-SIGN ECD = target: T3, DC-SIGN ECD (Homo sapiens, UniProt Q9NNX6); test: 19F NMR reporter displacement assay transferred to DC-SIGN ECD; type: binding; conditions: 0.1 mM reporter 49; for 48 estimated, receptor precipitation above 1 mM
T3 construct: DC-SIGN extracellular domain (ECD); made in house; host or cells: E. coli BL21(DE3), pET30b; gene from GenScript
T3 sequence (Q9NNX6 59-404 limits assumed): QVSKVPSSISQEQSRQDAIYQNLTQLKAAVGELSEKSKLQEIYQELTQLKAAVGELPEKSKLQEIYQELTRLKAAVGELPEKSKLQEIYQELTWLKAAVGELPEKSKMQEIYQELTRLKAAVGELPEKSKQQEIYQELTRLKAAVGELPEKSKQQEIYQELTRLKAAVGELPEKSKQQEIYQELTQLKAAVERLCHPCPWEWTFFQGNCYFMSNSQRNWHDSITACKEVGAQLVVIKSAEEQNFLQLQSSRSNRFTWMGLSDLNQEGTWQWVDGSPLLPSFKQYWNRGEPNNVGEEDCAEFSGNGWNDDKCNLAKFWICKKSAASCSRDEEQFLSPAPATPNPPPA
Protocol: KI values were determined as previously described for Langerin and the DC-SIGN CRD.6 Briefly, competitive binding experiments were conducted with 49 at a concentration of 0.1 mM and varying competitor concentrations [I]T. KI and [P]T values were derived from Equation 8 in a two-parameter fit.
𝜃 = 𝑐𝑜𝑠−1 ( ) ,𝑎 = 𝐾𝐷 + 𝐾𝐼 + [𝐿]𝑇 + [𝐼]𝑇 − [𝑃]𝑇
𝑏 = ([𝐼]𝑇 − [𝑃]𝑇)𝐾𝐷 + ([𝐿]𝑇 − [𝑃]𝑇)𝐾𝐷 + 𝐾𝐼𝐾𝐷, 𝑐 = −𝐾𝐼𝐾𝐷[𝑃]𝑇
For KD determination from 19F NMR CSPs, samples and measurements were set up as described for 19F R2-filtered NMR but at a single relaxation time T = 0 s. CSP 19F, T were calculated from the chemical shift of the 19F resonance of 48 in the presence of protein δT at increasing ligand concentrations and the chemical shift in absence of protein δf at a concentration of 1 mM via Equation 4.
The KD value was calculated from CSP19F, T values in a two -parameter fit using Equation 10, using a fixed protein concentration [P] T and a CSP19F of 0 ppm as a lower bound. CSP19F,b corresponds to the top asymptote and was kept variable. As in Equation 9, pb represents the fraction of bound protein.

Langerin CRD [6] = target: T2, Langerin CRD; design: method as in earlier work; conditions: previously published values; ref 6 (SI); cited from earlier work
[7] = calculated utilizing the KI value determined for 46
[8] = calculated utilizing the KI value determined for 45

Relative potency (Langerin ECD [3]; [8]): 40 | Ki (Langerin ECD [3]): 250 ± 70 µM | affinity increase over Man reference 45 (Langerin ECD [3]; from KI): 40 fold | Kd (Langerin CRD [4]): 460 ± 90 µM
SMILES: CC(=O)NCCS(=O)(=O)NC[C@H]1O[C@H](Oc2ccc(-c3ccc(C(=O)O)cc3)cc2C(F)(F)F)[C@@H](O)[C@@H](O)[C@@H]1O [compound 43]

potency estimated from few doses (Langerin ECD [5]; estimated at a single competitor concentration, 0.1 mM reporter ligand 49, 0% to 10% DMSO, read-out: KI,est): 200 µM | affinity increase over reference molecule 1 (Langerin ECD [5]; from KI,est): 45 fold | Relative potency (Langerin ECD [3]; [8]): 44 | Relative potency (Langerin ECD [3]; [7]): 57 | Ki (Langerin ECD [3]): 230 ± 30 µM | Kd (Langerin CRD [4]): 500 ± 200 µM
SMILES: O=C(O)c1ccc(-c2ccc(O[C@H]3O[C@H](CO)[C@@H](O)[C@H](O)[C@@H]3O)c(C(F)(F)F)c2)cc1 [compound 9]

Further lines, the compound ahead of its results:

SMILES: NCCS(=O)(=O)NC[C@H]1O[C@H](Oc2ccc(-c3ccc(C(=O)O)cc3)cc2C(F)(F)F)[C@@H](O)[C@@H](O)[C@@H]1O [compound 42]
binding of homomultivalent liposomes decorated with 2 mol% 42 (DC-SIGN+ Raji cells; 2 mol%, formulations not long-term stable, unspecific binding): binding preference towards DC-SIGN | binding of homomultivalent liposomes decorated with 2 mol% 42 [1]: negligible | binding of homomultivalent liposomes decorated with 2 mol% 42 [2]: negligible | binding of homomultivalent liposomes decorated with 2 mol% 42 (Langerin+ Raji cells): negligible

SMILES: COC1OC(CO)C(O)C(O)C1O (stereo not shown) [compound 46, reference compound]
Relative potency (Langerin ECD [3]; [7]): 1.0 | Ki (Langerin ECD [3]): 13000 ± 3000 µM | Kd (Langerin CRD [4]): 7000 ± 2000 µM

SMILES: CC(=O)NCCO[C@H]1O[C@H](CO)[C@@H](O)[C@H](O)[C@@H]1O [compound 45, reference compound]
Relative potency (Langerin ECD [3]; [8]): 1.0

SMILES: OC[C@H]1OC(O)[C@@H](O)[C@@H](O)[C@@H]1O (stereo partly shown) [Man, mannose, reference compound]
Ki (DC-SIGN ECD): 2400 ± 800 µM | Relative potency (Langerin ECD [3]; [8]): 2.2 | Kd (Langerin CRD [6]): 5800 ± 300 µM

SMILES: C[C@H](O)[C@@H](O)[C@@H](O)[C@H](O)C=O [Fuc, fucose, reference compound]
effect of soluble compound on binding of 48 liposomes (DC-SIGN+ Raji cells; soluble Fuc, liposomes with 1.26 mol % 48, p > 0.05, n = 4): did not increase
